This is an account of results in article PMC7394103 (Frontiers in Pharmacology, 2020).

Structures can show the parent of a compound that is named as a salt. Where two headings read alike, the source gives them in different places.

One data set deals with CIA in DBA1/J mice. Conditions: ref Schepetkin et al., 2015, cited from earlier work.
The subject of data set [1] is IL-6 secretion by synovial SW982 cells. Nature of the data set: IL-1β-induced IL-6 secretion by SW982 cells (ELISA). The following applies: Homo sapiens, SW982; shorter incubation period (12 h), TRYP absent; read-out: IC50, IL-1β-induced IL-6 secretion by SW982 cells. The class given is cell-based, human. Here is the method: FLS, HUVEC, SW982, and THP-1 cells were plated in 96 well plates (10^4 to 10^5 cells/well) for 48 h before treatment. At 2 days post-confluency, the cells were serum-starved and washed twice (with the exception of THP-1 cell, which were not washed) with FBS-free medium prior to the addition of test compounds. […] Culture supernatants were collected and stored at –80°C. The levels of MMP-1 and MMP-3 were determined in culture supernatants using commercially available ELISA kits according to the manufacturer’s instructions (R&D System, Minneapolis, MN, USA). IL-6 levels were also determined in the supernatants using a human IL-6 ELISA kit (BD Biosciences, San Jose, CA, USA).

Details of data set [2]: method as in Schepetkin et al., 2012. The following applies: mice, 30 mg/kg i.p., serum; ref Schepetkin et al., 2012; cited from earlier work.
In data set [3] the test system is c-Jun phosphorylation in FLS. Details: method as in Schepetkin et al., 2015. The following applies: ref Schepetkin et al., 2015; cited from earlier work.
Details of data set [4]: method as in Plotnikov et al., 2020. Conditions: rats, i.p.; ref Plotnikov et al., 2020; cited from earlier work.

For the compound `O=C1c2ccccc2-c2nc3ccccc3nc21` [IQ-18], the “anti-inflammatory activity or therapeutic effects in CIA” value with CIA in DBA1/J mice (2012, Schepetkin et al.) is listed as “did not have any anti-inflammatory activity or therapeutic effects in CIA”.

On to `Oc1c2ccccc2c2c3c(cccc13)N=N2` [SP600125, reference compound], for which the IC50 in data set [1] stood at 1300 ± 500 nM.

As to `ON=C1c2ccccc2-c2nc3ccccc3nc21` [IQ-1S, 11H-indeno[1,2-b]quinoxalin-11-one oxime salt], the AUC 0–12 h in data set [2] is 7.4 µM·h. The c-Jun phosphorylation entry in data set [3] is “inhibited c-Jun phosphorylation”. Also, the half-life in circulation in data set [4] is recorded as 12 h. In addition, the “time of peak serum concentration” value in data set [4] is reported as 5 min. The “reduction of arthritis in the CIA model” value with CIA in DBA1/J mice (5 mg/kg i.p.) is “not very effective”; with CIA in DBA1/J mice (30 and 50 mg/kg i.p.), “equally effective”.
